Laboratory results published in patent publication US20250108088A1, “REGENERATIVE PEPTIDES AND METHODS FOR USE THEREOF” (priority 2023, published 2025).
Entries after “also recorded” stand apart in the source; their conditions may differ.

Assays:
[1] = system: interleukin-8 (IL-8) production in human fibroblasts; assay: Fibroblast inflammation assay (LPS-induced IL-8, ELISA); type: cell-based; details: LPS induction
Protocol: Inflammation in fibroblasts leads to the production of the chemokine interleukin-8 (IL-8), which stimulates fibroblast to myofibroblast transition (MFT) thereby enhancing scar formation. To determine if the peptides of the instant disclosure affect fibroblast response to inflammation and fibroblast IL-8 production, the following assays were performed.
Human fibroblasts were grown as described above. HNDFs were plated in 96 well plates at a concentration of 1×10^4 cells/well and allowed to incubate overnight. The next day cells were dosed with 5 μg/mL of LPS with and without the peptides. The negative control contained only media and vehicle, while the positive control was dosed with lipopolysaccharides (LPS) and dexamethasone (50 μg/ml). After 24 hours, the media was removed to measure IL6 and IL8 cytokine levels using ELISA. A standard curve was plotted in excel. All data were blank subtracted and then fit onto the curve to calculate cytokine concentrations.

[2] = system: Keratinocytes; assay: Keratinocyte scratch assay; type: cell-based, human; design: Keratinocyte scratch assay (% change relative to control): unit not given here
Protocol: HNDF fibroblasts were grown as described above. HNDFs were split from 1-10 cm plate to 4-24 well plates. Cells were allowed to grow until 90-100% confluent. Cells were serum starved (in 1% FBS in DMEM) for 4 hours before scratching using the Biotek Autoscratch machine. Cells were washed with PBS and the media was replaced with starvation media as a negative control, normal media (10% FBS) as positive control, and starvation media+compound as the test article. Cells were imaged at T=0 to serve as a baseline and fixed at T=48 hours. The images at 48 hours were imaged using phase contrast microscopy or with wheat germ agglutinin (WGA) stain.
Scratch assays were also performed on keratinocytes. Keratinocytes were grown to confluency and scratch assays were performed and measured as above with fibroblasts.

[3] = system: Normal human dermal fibroblasts (HNDF); assay: Myofibroblast transition assay (MFT), aSMA immunofluorescence; type: cell-based; details: N = 3; for Myofibroblast transition (MFT), aSMA/cell, % change relative to control: TGF-Beta induced HNDF, control of no peptide; for MFT, Representative value from experiments (% change relative to control): most effective significant concentration of 10, 100, 1000 ng/ml
From the text: The myofibroblast transition (MFT) assay determines the effect of the peptide on inhibiting the transition of fibroblasts to myofibroblasts. The extracellular matrix produced by myofibroblasts may be produced in excess and may not be remodeled during tissue healing, leaving behind the fibrous connective tissue that forms a scar. Thus, the ability to regulate the degree of MFT may enable control of scarring. To determine if the peptides provided herein affect MFT, the following assay was performed.
Normal human dermal fibroblasts (HNDF) were cultured in high glucose Dulbecco's modified eagle medium (DMEM) supplemented with 10% fetal bovine serum (FBS) and 5 ml of 10,000 units of penicillin/streptomycin. Cells were cultured on 10 cm plates with media changes every 2 days. Cells were passaged in 0.25% Trypsin/EDTA after achieving 80% confluency.
To induce myofibroblast transition (MFT), normal human dermal fibroblasts (HNDFs) were split from 1-10 cm plates to 5-96 well plates. Cells were then allowed to grow the next day. The following day, cells were serum starved (1% FBS in DMEM) for 4 hours prior to adding 20 ng/ml of TGF-Beta to all wells of the plate. 1000 μM of Vactosertib (TEW-7197/EW-7197) was added to serve as a positive control and different concentrations of peptides were added to serve as the test articles. The cells were then exposed to the compounds for 5 more days before fixation.
The cells were fixed in paraformaldehyde (PFA) for 10-15 minutes, then washed 2× in PBS. Cells were blocked in 4% BSA for 30 minutes at 23° C. Cells were stained with the primary alpha-smooth muscle actin (aSMA) antibody (1:100) for 1 hour at 23° C. or left out at 4° C. overnight. Cells were rinsed 2× with BSA and then the secondary antibody mix was added: Alexa 488 (1:500) and DAPI (1:1000) for 30 min at 23° C. or 1 hr at 4° C. The plates were covered during staining, then rinsed 2× in BSA and stored in PBS.
Plates were imaged using the Celigo Imaging Cytometer by Nexcelcom. The ratio of fluorescent expression of alpha-smooth muscle actin (aSMA) and DAPI were quantified to determine the amount of aSMA/cell.
The change (normalized to the control) in MFT for each concentration is shown along with the p value for all experiments relative to the control of no peptide.

[4] = system: skin after dermabrasion; assay: Clinical study, transepidermal water loss (TEWL, Vapometer) after dermabrasion; type: in vivo, human; details: 8, 24, 48 hours, vehicle cream base
Protocol: (§1) To determine the effects of exemplary peptides p1-p9 on tissue healing, a clinical study was performed that assessed transepidermal water loss (TEWL) and skin smoothness after dermabrasion.
(§2) This exemplary vehicle cream has a pH of 5.0, no odor and is white in color.
After 8 hours (T8h) of first product application, the subjects returned to the Institute, acclimated for 15 minutes and new Vapometer® to measure TEWL and Visioscan® VC 20Plus to measure skin smoothness was performed. After 1 (T1d), 2 (T2d) and 3 (T3d) days the subjects returned to the Institute, acclimated for 15 minutes and new measurements were performed. At time-points T1d and T2d new product application was performed by the technician on each test site. A total of 49 study subjects were included in the study and a total of 41 completed the study. […]
The TEWL measurements were performed by using the Vapometer® device through a measurement probe. The readings were taken by applying the probe to the test sites, by resting it against the skin.
The measurements principle is diffusion, which indicates the mass of water per cm^2 that is transported in a given period of time, that is, the reading indicates the degree of water evaporation on the skin surface based on the sensitivity of hygro-sensors. The scale used is g/h/m^2, in which greater values of reading indicate higher evaporation. […]

[5] = system: skin after dermabrasion; assay: Clinical study, Visioscan skin smoothness after dermabrasion; type: in vivo, human; details: 8, 24, 48 and 72 hours after dermabrasion; vehicle cream base
Protocol: as §1, §2
After 8 hours (T8h) of first product application, the subjects returned to the Institute, acclimated for 15 minutes and new Vapometer® to measure TEWL and Visioscan® VC 20Plus to measure skin smoothness was performed. After 1 (T1d), 2 (T2d) and 3 (T3d) days the subjects returned to the Institute, acclimated for 15 minutes and new measurements were performed. At time-points T1d and T2d new product application was performed by the technician on each test site. A total of 49 study subjects were included in the study and a total of 41 completed the study. The study included post-menopausal female subjects, aged between 50 and 65 years old (mean age: 59 years old), presenting Fitzpatrick Skin Types II-V.
Skin texture images were performed using the Visioscan® VC 20Plus, which allows taking pictures of the skin through magnifying lenses. The images enable a view of the skin topography, texture, dryness, desquamation, blemishes, pores, and cuticles.

[6] = system: skin post-dermabrasion; assay: Clinical study, erythema (Chromameter a* value) post-dermabrasion; type: in vivo, human; details: 4 hours and 12 hours after application
Protocol: To determine the effects of the peptides on skin redness, the peptides P2, P3, and the combination of P2+P3 were tested at different concentration levels and subject's skin redness (erythema) was measured post-dermabrasion and 2, 4, 8, 12, 24, 48 and 72 hours post-application. The subjects were 30 post-menopausal female subjects, aged 50-65 years or younger, if post-menopausal. Enrolled subjects were to have Fitzpatrick Skin Types II-V. At baseline (post-dermabrasion) and 2, 4, 8, 12, 24, 48 and 72 hours post-application, skin redness was measured on 4 skin sites using the Chromameter® (Konica Minolta, Ramsey NJ). In order to determine any changes in skin redness, the a* value was analyzed. The a* value measures redness/erythema in the skin. A decrease in the a* value corresponded to a whitening/improvement (less red) effect and an increase in the a*value represented a darkening/worsening (redder) effect

[7] = system: HNDF fibroblasts; assay: Fibroblast cell proliferation (EDU); type: cell-based, human; details: N = 3; for Fibroblast proliferation, Representative value from experiments (% change relative to control): most effective significant concentration
Protocol: Fibroblast proliferation is an important component of tissue regeneration. To determine if the peptides of the disclosure affect fibroblast proliferation, HNDFs were grown as described above, and split from 1-10 cm plates to 4-24 well plates. After allowing the cells to grow overnight, normal media was replaced with starvation media (1% FBS in DMEM). 10 ng/ml of fibroblast growth factor (FGF) served as a positive control, untreated cells (starvation media only) served as a negative control, and different concentrations of the peptides as test articles. The cells were then exposed to the peptides for a day before adding 5-Ethynyl-2′-deoxyuridine (EDU) EDU signal marker for 2-4 hours to assess DNA synthesis and cell proliferation.
The fibroblasts were fixed in PFA for 10-15 minutes, then washed 2× in 4% BSA. 0.1% Triton X-100 in PBS was added for 20 min at 23° C. to permeabilize the cells. The cells were washed 2× in 4% BSA and the following reaction mixture was added: 0.25% of 488 iFlour azide, 4% CuSO, 10% Sodium Ascorbate in PBS. The cells were incubated at 23° C. for 30 minutes. The cells were washed in BSA 1× and in PBS 1×. The cells were also stained for DAPI for 30 minutes at 23° C. The cells were washed 2× in PBS and maintained in PBS.
Plates were imaged using the Celigo Imaging Cytometer by Nexcelcom. The amount of fluorescent expression of EDU and DAPI were quantified to determine the amount of EDU/field (and thus the percentage of fibroblast cells dividing).
Because the concentration required to induce an effect with each peptide was not known, each peptide was tested in 3 concentrations: 10 ng/ml, 100 ng/ml, and 1000 ng/ml as shown in Table 4A and Table 4B.

[8] = system: Acinetobacter baumannii ATCC 196062; assay: Diffusion agar plate method, zone of inhibition; type: cell-based; details: 62.5 μg/ml to 1000 μg/ml; FIG. 5, FIG. 10
Protocol: (§3) Cell culture: Cultures of each bacterial strain were prepared by inoculating on Muller Hinton Agar (MHA) medium. After overnight incubation at 37° C., the density of the bacterial cells was compared to the McFarland turbidity standard (0.5).
(§4) Plates were swabbed with McFarland 0.5 inoculum of each test bacteria. […] serial dilutions of the peptides were prepared and 20 μl of compound were dropped onto the MHA. Antibiotic disc served as a positive control and vehicle alone served as the negative control. Plates were incubated for 16-18 hours and assessed for antibacterial activity. Zones of inhibition were measured for each TA dilution and compared with the controls.

[9] = system: Streptococcus pneumoniae DCC1335; assay: Diffusion agar plate method, zone of inhibition; type: cell-based; details: 62.5 μg/ml to 1000 μg/ml; FIG. 10
Protocol: as §3, §4

QFCGPCGLRKRLRKFRNK [MBb11]
effect on IL-8 inhibition in fibroblasts relative to the negative control [1]: low but significant effect | increase of keratinocyte migration [2]: at least 39% | rate of keratinocyte migration [2]: significantly increased | Keratinocyte scratch assay (% change relative to control) ([2]; 1000 ng/ml, N = 8): 0.3892 | Myofibroblast transition (MFT), aSMA/cell, % change relative to control ([3]; 100 ng/ml peptide): −0.3537% | Myofibroblast transition (MFT), aSMA/cell, % change relative to control ([3]; 1000 ng/ml peptide): −0.419% | MFT, Representative value from experiments (% change relative to control) [3]: −0.419 p = (0.025) %

QRLLEAQAAT [Peptide P2]
TEWL, skin barrier restoration [4]: most promising TEWL assay results; also recorded: most promising results in skin barrier restoration | skin smoothness (Visioscan) [5]: visible; also recorded: most promising skin smoothness results | skin redness (erythema), a* value [6]: significantly improved erythema; also recorded: improve skin redness

SAYGVSKGLRKRLRKFRNK [MBb51]
Fibroblast proliferation (% change relative to control) ([7]; 100 ng/ml peptide): 0.3099% | Fibroblast proliferation (% change relative to control) ([7]; 1000 ng/ml peptide): 0.4175% | Fibroblast proliferation, Representative value from experiments (% change relative to control) [7]: 0.4175 p = (0.025) % | Myofibroblast transition (MFT), aSMA/cell, % change relative to control ([3]; 10 ng/ml peptide): −0.5028% | Myofibroblast transition (MFT), aSMA/cell, % change relative to control ([3]; 1000 ng/ml peptide): −0.3773% | MFT, Representative value from experiments (% change relative to control) [3]: −0.5028 p = (0.042) %

SSSGLGLRKRLRKFRNK [MBb50]
Fibroblast proliferation (% change relative to control) ([7]; 100 ng/ml peptide): 0.3589% | Fibroblast proliferation, Representative value from experiments (% change relative to control) [7]: 0.3589 p = (0.025) %

TFMSHLFCCVQKRCDCSF [MBdol23]
agar zone of inhibition, inhibiting bacterial growth [8]: effective | agar zone of inhibition, inhibiting bacterial growth [9]: effective

VYFVIKT [MBBey41]
Myofibroblast transition (MFT), aSMA/cell, % change relative to control ([3]; 1000 ng/ml peptide): −0.691% | MFT, Representative value from experiments (% change relative to control) [3]: −0.691 p = (0.021) %

WVSGL [MBb7]
Myofibroblast transition (MFT), aSMA/cell, % change relative to control ([3]; 10 ng/ml peptide): −0.2139% | Myofibroblast transition (MFT), aSMA/cell, % change relative to control ([3]; 100 ng/ml peptide): −0.1848% | MFT, Representative value from experiments (% change relative to control) [3]: −0.2139 p = (0.02) %
